# Measured values from US7125542B2, “Methods and compositions for treating conditions of the eye” (Massachusetts Eye and Ear Infirmary, priority 2000, dated 2006).
# Read-outs that look alike come from different tables or passages of the source.
# Tests used:
# [1] = stock solution of 2 mg/ml, in the dark at 4° C.; cited from earlier work
# [2] = system: Bovine retinal capillary endothelial (BRCE) cells; assay: Cell survival, 1-week cell proliferation assay in BRCE cells; type: cell-based; conditions: for Cellular Survival (%): BRCE
# Method: (§1) Bovine retinal capillary endothelial (BRCE) cells (from Patricia A. D'Amore, Schepens Eye Research Institute, Boston, Mass.) and Human retinal pigment epithelial (RPE) cells (from Anthony P. Adamis, Massachusetts Eye & Ear Infirmary, Boston, Mass.) were grown at 37° C., 5% CO2 in Dulbecco's modified Eagle's medium (DMEM; Sigma, St. Louis, Mo.), 5% heat-inactivated fetal bovine serum (FBS, Gibco, Grand Island, N.Y.), supplemented with L-glutamine, penicillin, and streptomycin (Gibco Grand Island, N.Y.). Lutetium Texaphyrin (Lu-Tex) was obtained from Alcon Laboratories, Inc. (Fort Worth, Tex.) as a stock solution of 2 mg/ml, stable in the dark at 4° C., and used in accordance with the manufacturer's guidelines.
# (§2) Cell survival was measured using a cell proliferation assay. Briefly, BRCE or RPE cells were plated at a density of 10^5 cells in DMEM with 5% FBS and incubated at 37° C. in 5% CO2. After eighteen hours, and if desired, recombinant human angiostatin (Calbiochem, La Jolla, Calif.) was added at a concentration of 500 ng/ml. Eighteen hours later, the medium was removed and replaced by 3 μg/ml Lu-Tex in complete media. Thirty minutes later, the cultures were exposed to timed irradiation using an argon/dye Photocoagulator at 732 nm and laser delivery system (model 920, Coherent Inc., Palo Alto, Calif.). Irradiance was delivered at a rate of […] to give a total dose of 5 to 20 J/cm^2, and irradiation time ranged from 7 to 28 minutes. After irradiation, the medium was removed and replaced with complete medium. Cultures were returned to the incubator for 7 days, after which cells were dispersed in trypsin, counted in a masked fashion, and the surviving fraction determined. Cultures were photographed at various times following Lu-Tex/PDT using a 16×-0.32 numeric aperture on a phase contrast inverted microscope (Diaphot, Nikon, Melville, N.Y.).
# In order to assess the effect of combining angiostatin to Lu-Tex/PDT on BRCE cell survival, cells were pre-treated for 18 hours with 500 ng/ml angiostatin after which they were treated with Lu-Tex/PDT at various fluences. Cellular survival was measured by the 1-week cellular proliferation assay.
# Bcl-xL = assay: Western blot of Bcl-2 family members in RPE cells after Lu-Tex/PDT; type: cell-based, Human; conditions: up to 4 hours post-PDT, then plateau
# Method: (§3) In order to evaluate the expression of Bcl-2 family members in BRCE and RPE cells after Lu-Tex/PDT, BRCE and RPE cells were subjected to Lu-Tex/PDT and the resultant cellular lysates subjected to Western blot analysis for detection of the anti-apoptotic Bcl-2, Bcl-xL markers, and the pro-apoptotic Bax and Bak markers.
# (§4) Cell lysates were produced as described in Example 3. Sodium dodecyl sulfate-polyacrylamide gel electrophoresis of proteins was performed with 12% SDS-polyacrylamide gels. All samples were boiled in denaturing sample buffer, and equal amounts of proteins were loaded per lane. Proteins were separated at room temperature under reducing conditions at 120 V. Western blot transfer of separated proteins was performed at room temperature, using polyvinylidene fluoride membranes at 50 mA for 1 hr. To verify equal protein loading, blots were stained with 0.1% ponceau red (Sigma) diluted in 5% acetic acid. Afterwards, blots were blocked for 1 hr in Tris buffered saline (TBS; 10 mM Tris-HCl, pH 7.5, and 150 mM NaCl) containing 5% non-fat dried milk. Next, the membranes were probed with an appropriate dilution (1:250 to 1:1000) of primary antibody in TBS containing 2.5% non-fat dried milk for one and a half hours. Mouse polyclonal antibodies against Bcl-2, Bcl-xL, Bax and Bak were purchased from Pharmingen. […]
# Bak = assay: as above; type: cell-based, Human; conditions: up to 4 hours post-PDT, then decline
# Method: as §3, §4
# [3] = system: Human retinal pigment epithelial (RPE) cells; conditions: cited from earlier work
# Bax = assay: Western blot of Bcl-2 family members in BRCE cells after Lu-Tex/PDT; type: cell-based, Bovine; conditions: after Lu-Tex/PDT at LD50
# Method: as §3
# (§5) Cell lysates were produced as described in Example 3. Sodium dodecyl sulfate-polyacrylamide gel electrophoresis of proteins was performed with 12% SDS-polyacrylamide gels. All samples were boiled in denaturing sample buffer, and equal amounts of proteins were loaded per lane. Proteins were separated at room temperature under reducing conditions at 120 V. Western blot transfer of separated proteins was performed at room temperature, using polyvinylidene fluoride membranes at 50 mA for 1 hr. To verify equal protein loading, blots were stained with 0.1% ponceau red (Sigma) diluted in 5% acetic acid. Afterwards, blots were blocked for 1 hr in Tris buffered saline (TBS; 10 mM Tris-HCl, pH 7.5, and 150 mM NaCl) containing 5% non-fat dried milk. Next, the membranes were probed with an appropriate dilution (1:250 to 1:1000) of primary antibody in TBS containing 2.5% non-fat dried milk for one and a half hours. Mouse polyclonal antibodies against Bcl-2, Bcl-xL, Bax and Bak were purchased from Pharmingen. After incubation with primary antibody, the blots were washed for 30 minutes with frequent changes of TBS, blocked in 1% non-fat dried milk in TBS for 30 minutes, followed by incubation in a peroxidase-coupled secondary antibody for 1 hour in TBS containing 1% non-fat dried milk. The blots were washed for 1 hour with frequent changes of TBST (TBS, 0.1% Tween). Immunoblot analysis was performed using enhanced chemiluminescence plus Western blotting detection reagents (Amersham, Pharmacia Biotec Piscataway, N.J.) followed by exposure to x-ray film (ML Eastman Kodak, Rochester, N.Y.).
# Bcl-2 = assay: as above; type: cell-based, Bovine; conditions: after Lu-Tex/PDT at LD50
# Method: as §3, §5
# RPE cells = assay: Cellular morphology following PDT, RPE cells; type: cell-based, Human; conditions: after treatment
# Method: (§6) Experiments were performed to establish how PDT effects the cellular morphology of BRCE and RPE cells. The cells were treated and exposed to PDT either alone or in combination with angiostatin as described in Example 1. Although cells appeared severely damaged immediately after PDT, subsequent recovery occurred in certain circumstances. One week after PDT, some cells disappeared while those that remained regained their spindle shape and their ability to attach.
# [4] = system: Caspase 3-like (DEVD-ase) protease; assay: Caspase 3-like (DEVD-ase) activation, Ac-DEVD-AFC cleavage in BRCE lysates; type: cell-based, Bovine
# Method: In order to investigate the role of apoptosis in Lu-Tex/PDT mediated cell death in BRCE and RPE, the activation of Caspase 3-like (DEVD-ase) protease, a hallmark of apoptosis (Nicholson (1997) TIBS 22: 299–306), was monitored. The kinetics of activation were measured spectrofluorometrically by assaying the hydrolysis of a substrate that can be cleaved only by the caspase 3-like protease family members.
# Various times after Lu-Tex/PDT, 10^6 cells were collected by centrifugation, and the washed cell pellet resuspended in 500 μl of ice-cold lysis buffer (pH 7.5) containing 10 mM Tris, 130 mM NaCl, 1% Triton X-100, 10 mM NaF, 10 mM NaPi, 10 mM NaPPi, 16 μg/ml benzamidine, 10 μg/ml phenanthroline, 10 μg/ml aprotinin, 10 μg/ml leupeptin, 10 μg/ml pepstatin and 4 mM 4(2-aminoethyl)-benzene-sulfanyl fluoride hydrochloride (AEBSF). Cellular lysates were stored in aliquots at −84° C. for later protease activity assay or Western blot analysis. A protein assay (Coomassie Plus protein assay (Pierce, Rockford, Ill.) with a bovine serum albumin (BSA) standard was used to assay protein concentration in cell extract.
# (§7) In order to measure protease activity, aliquots containing 50 1 μg of cellular protein were incubated with 14 μM (final concentration N-acetyl (Asp-Glu-Val-Asp (SEQ. ID NO: 3)-(7-amino-4-trifluoromethly coumarin) (Ac-DEVD-AFC); (Pharmingen San Diego, Calif.) in 1 ml protease assay buffer pH 7.2 (20 mM piperazine-N-N^1-bis (2-ethanesulfuric acid) (PIPES), 100 mM NaCl, 10 mM dithiothreitol (DTT), 1 mM EDTA, 0.1%(w/v) 3-[(3-Cholamidopropyl) dimethyl ammonio]-1-propane sulfonate (CHAPS), and 10% sucrose) at 37° C. for 1 hour. Fluorescence was measured using a Perkin-Elmer MPF-44A spectrofluorometer (λexcitation, 400 nm; λemission 505 nm). Cellular protein served as the blank.
# In order to examine the effect of combining angiostatin and Lu-Tex/PDT on DEVD-ase activation in BRCE cells, cells were treated with angiostatin alone, Lu-Tex/PDT alone and angiostatin/Lu-Tex/PDT, following which caspase 3-like activity was assayed as described above. Fluences of 20 and 40 J/cm^2 were used, corresponding to LD100 of combination angiostatin/Lu-Tex/PDT and Lu-Tex/PDT alone respectively. […] As in the case of BRCE cells treated with Lu-Tex/PDT alone, the rate of entry into apoptosis of BRCE cells treated with combination of angiostatin/Lu-Tex/PDT was time-dependent.
# [5] = system: Caspase 3-like (DEVD-ase) protease; assay: Caspase 3-like (DEVD-ase) activation, Ac-DEVD-AFC cleavage in RPE lysates; type: cell-based, Human; conditions: RPE, 10, 20 and 40 J/cm^2
# Method: In order to investigate the role of apoptosis in Lu-Tex/PDT mediated cell death in BRCE and RPE, the activation of Caspase 3-like (DEVD-ase) protease, a hallmark of apoptosis (Nicholson (1997) TIBS 22: 299–306), was monitored. The kinetics of activation were measured spectrofluorometrically by assaying the hydrolysis of a substrate that can be cleaved only by the caspase 3-like protease family members. […]
# as §7, with “Cellular protein served as the blank.” left out
# [6] = system: Human retinal pigment epithelial (RPE) cells; assay: Cell survival, 1-week cell proliferation assay in RPE cells; type: cell-based; conditions: for Cellular Survival (%): RPE
# Method: as §1, §2
# [7] = typical; cited from earlier work
# BRCE cells = assay: Cellular morphology following PDT, BRCE cells; type: cell-based, Bovine; conditions: one week after treatment
# Method: as §6
# [8] = fluence 5 J/cm^2, 3 μg/ml Lu-Tex, angiostatin 500 ng/ml where used, 7 days, mean ± SD
# [9] = fluence 10 J/cm^2, 3 μg/ml Lu-Tex, angiostatin 500 ng/ml where used, 7 days, mean ± SD
# [10] = fluence 20 J/cm^2, 3 μg/ml Lu-Tex, angiostatin 500 ng/ml where used, 7 days, mean ± SD
# [11] = angiostatin alone 500 ng/ml, no PDT
compound,measurement,setting,value
"CC(=O)[O-].CC(=O)[O-].CCc1c(CC)c2cc3nc(cnc4cc(OCCOCCOCCOC)c(OCCOCCOCCOC)cc4ncc4nc(cc1[n-]2)C(CCCO)=C4C)C(C)=C3CCCO.O.[Lu+3] [Lu-Tex/PDT, Lutetium Texaphyrin]",stability of stock solution,[1],stable
same,Cellular Survival (%),[2]; [8],79.13 ± 4.05 (5J/cm^2) %
same,Cellular Survival (%),[2]; [9],53.17 ± 0.32 (10J/cm^2) %
same,Cellular Survival (%),[2]; [10],33.34 ± 2.26 (20J/cm^2) %
same,dark toxicity,"[2]; at the concentration of Lu-Tex used (3 μg/ml), no light",no dark toxicity was observed
same,lethality of BRCE cells,[2]; fluence 40 J/cm^2,100%
same,lethal dose (LD100) for BRCE cells,[2]; fluence of light,40 J/cm^2
same,Bcl-xL protein level,Bcl-xL,upregulation
same,Bak protein level,Bak,upregulation
same,RPE cell survival,"[3]; fluence 20 J/cm^2, previous studies",about 43%
same,RPE cell survival,"[3]; fluence 40 J/cm^2, previous studies",~21%
same,Bax protein level,Bax,upregulation
same,cellular ratio of Bax to Bcl-2 protein,Bax,increase
same,Bcl-2 protein level,Bcl-2,downregulation
same,cellular morphology / fate of RPE cells,RPE cells,appeared unchanged
same,increase of caspase 3-like activation in BRCE cells as compared to RPE cells,[4]; 10 J/cm^2 and 20 J/cm^2,about 50%
same,caspase 3-like activation levels in BRCE relative to RPE cells,[4]; 40 J/cm^2,5 fold
same,"caspase 3-like (DEVD-ase) activity, Lu-Tex/PDT (40 J/cm^2) compared with angiostatin/Lu-Tex/PDT (20 J/cm^2)",[4]; BRCE,increased levels
same,earliest elevation of caspase 3-like activity post-Lu-Tex/PDT,"[4]; BRCE, 10, 20 and 40 J/cm^2",10 min
same,time of peak caspase 3-like activity post-Lu-Tex/PDT,"[4]; BRCE, 10, 20 and 40 J/cm^2",40 min
same,earliest elevation of caspase 3-like activity post-Lu-Tex/PDT,[5],10 min
same,time of peak caspase 3-like activity post-Lu-Tex/PDT,[5],40 min
same,Cellular Survival (%),[6]; [8],94.55 ± 1.60 (5J/cm^2) %
same,Cellular Survival (%),[6]; [9],59.59 ± 3.56 (10J/cm^2) %
same,Cellular Survival (%),[6]; [10],53.47 ± 3.18 (20J/cm^2) %
same,improvement of RPE cell survival post-PDT,[6]; light dose 20 J/cm^2 (instead of 40 J/cm^2),20%
same,persistence in the target neovasculature,[7],about twenty
same,time until present within the target neovasculature post administration,[7],one
C=Cc1c(C)c2cc3nc(c(CC(=O)N[C@@H](CC(=O)O)C(=O)O)c4[nH]c(cc5nc(cc1[nH]2)C(C)=C5CC)c(C)c4C(=O)O)[C@@H](CCC(=O)O)[C@@H]3C [N-aspartyl chlorin e6],persistence in the target neovasculature,[7],about twenty
same,time until present within the target neovasculature post administration,[7],one
O=C([O-])c1c(Cl)c(Cl)c(Cl)c(Cl)c1-c1c2cc(I)c(=O)c(I)c-2oc2c(I)c([O-])c(I)cc12.[Na+].[Na+] [rose bengal],persistence in the target neovasculature,[7],about ten
same,time until present within the target neovasculature post administration,[7],one
Angiostatin,Cellular Survival (%),[2]; [11],87.39%
same,killing of BRCE cells,"[2]; angiostatin alone, 500 ng/ml",12.61%
same,cellular morphology / fate of RPE cells,RPE cells,continued to proliferate and reached confluence
same,cellular morphology / fate of BRCE cells,BRCE cells,continued to proliferate and reached confluence
same,Cellular Survival (%),[6]; [11],99.09%
same,cytotoxicity on human RPE cells,[6]; human angiostatin alone,no cytotoxicity was observed
benzoporphyrin derivative,persistence in the target neovasculature,[7],about fifty
same,time until present within the target neovasculature post administration,[7],one
